Laboratory results as given in PubChem BioAssay (NCI).
Values joined by “and” are separate entries in the source; they are usually repeats but may differ in a detail not shown here. Equal entries are not always repeated.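 The compound was tested at five concentrations on cells cultured in 96-well plates, with a 48-hour exposure period. GI50 is the concentration that inhibits growth by half. TGI: concentration producing complete growth inhibition.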

Experiments:
Assay in all cases: NCI-60 cell line screen, 48 h
[1] = system: OVCAR-5 ovarian
[2] = system: RPMI-8226 leukemia
[3] = system: K-562 leukemia
[4] = system: LOX IMVI melanoma
[5] = system: NCI-H522 lung
[6] = system: NCI-H226 lung
[7] = system: RXF 393 renal
[8] = system: 786-0 renal
[9] = system: EKVX NSCLC
[10] = system: SR leukemia

`NNc1ncnc2nc[nH]c12` was tested, and the GI50 [1] was 3.18 µM, the TGI [1] was greater than 40.4 µM and the GI50 [2] was 2.09 µM. It also gave a TGI [2] of 17.1 µM, a GI50 [3] of 3.4 µM and a TGI [3] greater than 100 µM. The GI50 [4] was 2.89 µM, the TGI [4] was greater than 100 µM and the GI50 [5] was 1.83 µM. It also gave a TGI [5] greater than 100 µM, a GI50 [6] of 5.88 µM and a TGI [6] greater than 100 µM. It also gave a GI50 [7] of 7.16 µM, a TGI [7] greater than 100 µM and a GI50 [8] of 3.03 µM. The TGI [8] was greater than 83.8 µM, the GI50 [9] was 7.17 µM and the TGI [9] was greater than 100 µM.
Work on `CC(=O)N/C(=C\c1ccccc1/C=C(\NC(C)=O)c1nc2cc(C)c(C)cc2[nH]1)c1nc2cc(C)c(C)cc2[nH]1` yielded a TGI [10] greater than 100 µM, a TGI [1] of 94.6 µM and a TGI [2] of 64.7 µM. It also gave a TGI [3] of 95.5 µM, a TGI [5] of 24 µM and a TGI [6] greater than 100 µM. The TGI [8] was 46.6 µM and the TGI [9] was 32.5 µM.
With `CNc1nc(N)nc(Nc2ccc(I)cc2)c1N=O` the TGI [10] was greater than 100 µM, the TGI [1] was greater than 100 µM and the TGI [2] was greater than 100 µM. For the same compound, the TGI [3] was greater than 100 µM, the TGI [4] was greater than 100 µM and the TGI [5] was greater than 100 µM. It also gave a TGI [7] greater than 100 µM, a TGI [8] greater than 100 µM and a TGI [9] greater than 100 µM.
`C[N+](C)(C)CC(=O)N/N=C(/Cc1cc(=O)oc2cc(O)ccc12)C(=O)Nc1ccc(Cl)cc1` gave a TGI [10] greater than 100 µM, a TGI [1] greater than 100 µM and a TGI [2] greater than 100 µM. The TGI [3] was greater than 100 µM, the TGI [5] was greater than 100 µM and the TGI [7] was greater than 100 µM. It also gave a TGI [8] greater than 100 µM and a TGI [9] greater than 100 µM.
`COc1ccc(Cl)cc1NC(=O)c1ccc(NC2=C(Cl)C(=O)N(Cc3ccccc3)C2=O)cc1` showed a GI50 [10] of 2.76 µM, a TGI [10] of 9.87 µM and a GI50 [1] greater than 100 µM. For the same compound, the TGI [1] was greater than 100 µM, the GI50 [3] was 6.87 µM and the TGI [3] was greater than 100 µM. For the same compound, the GI50 [4] was 8.5 µM, the TGI [4] was greater than 100 µM and the GI50 [5] was 17.5 µM. For the same compound, the TGI [5] was greater than 100 µM, the GI50 [6] was greater than 100 µM and the TGI [6] was greater than 100 µM. The GI50 [7] was 21.3 µM, the TGI [7] was 79.3 µM and the GI50 [8] was greater than 100 µM. For the same compound, the TGI [8] was greater than 100 µM, the GI50 [9] was greater than 100 µM and the TGI [9] was greater than 100 µM.
`COc1ccc2c(=O)oc3c(OC)cc(CCN(C)C)c4c(=O)oc1c2c34` was tested, and the TGI [1] was 31.9 µM and 22.3 µM, the GI50 [2] was 18.1 µM and 8.54 µM and the TGI [2] was 41.3 µM and 19.8 µM. For the same compound, the TGI [3] was 5.4 µM, the GI50 [4] was 17 µM and 7.81 µM and the TGI [4] was 31.3 µM and 18 µM. For the same compound, the TGI [5] was 25.6 µM and 13.9 µM, the TGI [6] was 33.2 µM and 50 µM and the GI50 [7] was 18 µM and 7.95 µM. The TGI [7] was 35.2 µM and 16.8 µM, the GI50 [8] was 3.66 µM and 0.762 µM and the TGI [8] was 14.2 µM and 1.51 µM. The GI50 [9] was 17.8 µM and 7.55 µM and the TGI [9] was 34.9 µM and 15.9 µM.
For `NC(N)=Nc1nc2ccccc2o1`, the GI50 [10] was greater than 100 µM, the TGI [10] was greater than 100 µM and the GI50 [1] was greater than 100 µM. The TGI [1] was greater than 100 µM, the GI50 [3] was greater than 100 µM and the TGI [3] was greater than 100 µM. For the same compound, the GI50 [4] was greater than 100 µM, the TGI [4] was greater than 100 µM and the GI50 [6] was greater than 100 µM. It also gave a TGI [6] greater than 100 µM, a GI50 [7] greater than 100 µM and a TGI [7] greater than 100 µM. The GI50 [8] was greater than 100 µM, the TGI [8] was greater than 100 µM and the GI50 [9] was greater than 100 µM. It also gave a TGI [9] greater than 100 µM.
In the case of `CCOC(=O)Nc1c(C)nc2ccccn12`, the GI50 [1] is reported as greater than 100 µM, the TGI [1] is reported as greater than 100 µM and the GI50 [2] is reported as greater than 100 µM. It also gave a TGI [2] greater than 100 µM, a GI50 [3] greater than 100 µM and a TGI [3] greater than 100 µM. The GI50 [4] was greater than 100 µM, the TGI [4] was greater than 100 µM and the GI50 [5] was greater than 100 µM. The TGI [5] was greater than 100 µM, the GI50 [6] was greater than 100 µM and the TGI [6] was greater than 100 µM. It also gave a GI50 [7] greater than 100 µM, a TGI [7] greater than 100 µM and a GI50 [8] greater than 100 µM. The TGI [8] was greater than 100 µM, the GI50 [9] was greater than 100 µM and the TGI [9] was greater than 100 µM.
